Square brackets hold non-standard residues; d marks the D form. Peptide text beside a SMILES is read from it. * marks the point of attachment. Hexanoyl = CCCCCC(=O)*; Ahx = NCCCCCC(=O)O
Legend:
Type in all cases: cell-based
[1] = system: primary culture of both cortical neurons and microglia; assay: Microglial activation (Iba1 area) after Aβ1-42 challenge; set-up: key to Significant decrease in Iba1 area, compared to vehicle treated (Aβ challenge): “NS” indicates a non-significant change in Iba1 area; “+” indicates a p value < 0.05 in Fisher's LSD post-test compared to Aβ challenged
[2] = system: BV2 microglia; assay: Nitrite production in LPS-stimulated BV2 microglia (Griess Reagent System); set-up: key to Inflammatory Readout: Nitrite (significance of reduction): “NS” indicates a non-significant reduction NO production; “++” indicates a p value < 0.005 in Dunnett's multiple comparison; “+++” indicates a p value < 0.0005 in Dunnett's multiple comparison; conditions: for Inflammatory Readout: Nitrite (significance of reduction): LPS pre-treatment 45 minutes, compound 23.5 hours
Source text: Microglia are the resident immune cells of the brain and, when activated by pathological conditions, promote broad-spectrum neuroinflammation. When activated by toxic exogenous substances, microglia produce excessive reactive oxygen species (ROS), nitric oxide (NO), and proinflammatory cytokines, which further propagates disease pathogenesis. BV2 microglia were used as an in-vitro cell model to evaluate mechanisms relevant to inflammation in the CNS. Upon activation of TLR4 with LPS, microglia are activated and trigger excessive oxidative stress, a process that is partially mediated by AKT phosphorylation (pAKT) and activation. Microglia activation also leads to a range of changes in gene expression.
Compound A19 active metabolite (Compound A19-AM) was investigated for whether it could reduce the inflammatory effect of LPS in microglia. Inflammatory activation of BV2 microglia cells was stimulated by pre-treatment with LPS for 45 minutes, followed by the addition of test compound for 1 hour (pAKT) or 23.5 hours (NO and gene expression panel). For pAKT measurement, cells were lysed and the pAKT measurement was conducted using the HTRF system. For NO production, culture supernatants were collected and assessed for the presence of nitrite, a primary metabolic product of nitric oxide.
Quantification of nitrite production in cell culture supernatants was accomplished using the Griess Reagent System (Promega, G2930). Measurement of pAKT was assessed utilizing Phospho-AKT 1/2/3 (Ser473) […] Cellular Detection Kit (CisBio, 64AKSPEH).
Data analysis was performed via One-way ANOVA with Dunnett's multiple comparisons test compared to LPS-stimulated, vehicle treated cultures using Prism statistical software (GraphPad). Tabular data indicates significance of reduction in the indicated analyte at the indicated dose.

[3] = system: BV2 microglia; assay: Quantigene gene expression panel in LPS-stimulated BV2 microglia; set-up: key to Significant reduction in target transcript abundance compared to LPS-stimulated BV2 lysates: NLRP3 / Significant reduction in target transcript abundance compared to LPS-stimulated BV2 lysates: IL-1β / Significant reduction in target transcript abundance compared to LPS-stimulated BV2 lysates: IL-6 / Significant reduction in target transcript abundance compared to LPS-stimulated BV2 lysates: iNOS: “NS” indicates a non-significant reduction indicated gene expression compared to LPS-treated cultures; “+” indicates a p value < 0.05; “++” indicates a p value < 0.01; “+++” indicates a p value < 0.001; “+++” indicates a p value < 0.0005 in Dunnett's multiple comparison
Protocol: Changes in gene expression in BV2 cells in response to stimulation with LPS and whether or not these gene expression changes are influenced by treatment with Compound A19-AM was also examined. Inflammatory activation of BV2 microglia was stimulated by pre-treatment with LPS for 45 minutes followed by the addition of test compound for 23.5 hours. Cell cultures were then lysed and processed for expression profiling via bead-based transcript quantification using the Quantigene multiplex gene expression assay (ThermoFisher) and a custom array of target transcripts relevant to inflammatory activation. Expression of a major component of the inflammasome (NLRP3), cytokines (TNF-α, IL-1β, and IL-6), and inducible nitric oxide synthase (iNOS) were assessed. Expression data were quantified as fold change compared to unstimulated cell cultures. Statistical analysis consisted of one-way ANOVA with Dunnett's multiple comparisons post-test compared to LPS-stimulated lysates. Gene expression data is represented in Table 14. Expression of all inflammatory transcript targets were induced by treatment with LPS.

CCCCCC(=O)N[C@@H](Cc1ccc(O)cc1)C(=O)N[C@H](C(=O)NCCCCCC(N)=O)[C@@H](C)CC [Compound A19 active metabolite, dihexa] (Hexanoyl-Tyr-Ile-[Ahx]-NH2)
Significant decrease in Iba1 area, compared to vehicle treated (Aβ challenge) ([1]; 100 nM, Pre-(60 min) and Co- Aβ challenge): + (“+” indicates a p value < 0.05 in Fisher's LSD post-test compared to Aβ challenged)
Significant decrease in Iba1 area, compared to vehicle treated (Aβ challenge) ([1]; 100 nM, Pre-(60 min) and post-(24 h) Aβ challenge): NS
Significant decrease in Iba1 area, compared to vehicle treated (Aβ challenge) ([1]; 100 nM, Pre-(60 min), Co-, and post-(24 h) Aβ challenge): + (“+” indicates a p value < 0.05 in Fisher's LSD post-test compared to Aβ challenged)
Significant decrease in Iba1 area, compared to vehicle treated (Aβ challenge) ([1]; 1 μM, Pre-(60 min) and Co- Aβ challenge): + (“+” indicates a p value < 0.05 in Fisher's LSD post-test compared to Aβ challenged)
Significant decrease in Iba1 area, compared to vehicle treated (Aβ challenge) ([1]; 1 μM, Pre-(60 min) and post-(24 h) Aβ challenge): NS
Significant decrease in Iba1 area, compared to vehicle treated (Aβ challenge) ([1]; 1 μM, Pre-(60 min), Co-, and post-(24 h) Aβ challenge): + (“+” indicates a p value < 0.05 in Fisher's LSD post-test compared to Aβ challenged)
Significant decrease in Iba1 area, compared to vehicle treated (Aβ challenge) ([1]; 60 min pre-Aβ challenge, concentration not given): + (“+” indicates a p value < 0.05 in Fisher's LSD post-test compared to Aβ challenged)
Microglial activation, as measured by Iba1 area (result in words) ([1]; Aβ1-42 challenge 72 hours): significantly reduced microglial activation
Production of nitrite (result in words) ([2]; LPS-stimulated BV2): significantly reduced
Inflammatory Readout: Nitrite (significance of reduction) ([2]; dose 0.01 nM): ++ (“++” indicates a p value < 0.005 in Dunnett's multiple comparison)
Inflammatory Readout: Nitrite (significance of reduction) ([2]; dose 1 nM): +++ (“+++” indicates a p value < 0.0005 in Dunnett's multiple comparison)
Inflammatory Readout: Nitrite (significance of reduction) ([2]; dose 10 nM): NS
Expression of IL-1β (result in words) ([3]; concentrations as in the value): reduced at treatment concentrations of 100 nM and 1 μM
Expression of IL-6 (result in words) ([3]; concentrations as in the value): reduced at by treatment with 1 μM
Expression of NLRP3 (result in words) ([3]; concentrations as in the value): significantly reduced by treatment with 100 nM and 1 μM
Expression of TNF-α (result in words) ([3]; concentrations as in the value): reduced by treatment with A19-AM at all tested concentrations
Expression of iNOS (result in words) ([3]; concentrations as in the value): significantly reduced by treatment with A19-AM at concentrations of 100 nM and 1 μM
Significant reduction in target transcript abundance compared to LPS-stimulated BV2 lysates: IL-1β ([3]; dose 1 pM): NS
Significant reduction in target transcript abundance compared to LPS-stimulated BV2 lysates: IL-6 ([3]; dose 1 pM): NS
Significant reduction in target transcript abundance compared to LPS-stimulated BV2 lysates: NLRP3 ([3]; dose 1 pM): NS
Significant reduction in target transcript abundance compared to LPS-stimulated BV2 lysates: iNOS ([3]; dose 1 pM): NS
Significant reduction in target transcript abundance compared to LPS-stimulated BV2 lysates: IL-1β ([3]; dose 10 pM): NS
Significant reduction in target transcript abundance compared to LPS-stimulated BV2 lysates: IL-6 ([3]; dose 10 pM): NS
Significant reduction in target transcript abundance compared to LPS-stimulated BV2 lysates: NLRP3 ([3]; dose 10 pM): NS
Significant reduction in target transcript abundance compared to LPS-stimulated BV2 lysates: iNOS ([3]; dose 10 pM): NS
Significant reduction in target transcript abundance compared to LPS-stimulated BV2 lysates: IL-1β ([3]; dose 100 pM): NS
Significant reduction in target transcript abundance compared to LPS-stimulated BV2 lysates: IL-6 ([3]; dose 100 pM): NS
Significant reduction in target transcript abundance compared to LPS-stimulated BV2 lysates: NLRP3 ([3]; dose 100 pM): NS
Significant reduction in target transcript abundance compared to LPS-stimulated BV2 lysates: iNOS ([3]; dose 100 pM): NS
Significant reduction in target transcript abundance compared to LPS-stimulated BV2 lysates: IL-1β ([3]; dose 100 nM): + (“+” indicates a p value < 0.05)
Significant reduction in target transcript abundance compared to LPS-stimulated BV2 lysates: IL-6 ([3]; dose 100 nM): NS
Significant reduction in target transcript abundance compared to LPS-stimulated BV2 lysates: NLRP3 ([3]; dose 100 nM): ++ (“++” indicates a p value < 0.01)
Significant reduction in target transcript abundance compared to LPS-stimulated BV2 lysates: iNOS ([3]; dose 100 nM): ++ (“++” indicates a p value < 0.01)
Significant reduction in target transcript abundance compared to LPS-stimulated BV2 lysates: IL-1β ([3]; dose 1 μM): ++ (“++” indicates a p value < 0.01)
Significant reduction in target transcript abundance compared to LPS-stimulated BV2 lysates: IL-6 ([3]; dose 1 μM): + (“+” indicates a p value < 0.05)
Significant reduction in target transcript abundance compared to LPS-stimulated BV2 lysates: NLRP3 ([3]; dose 1 μM): + (“+” indicates a p value < 0.05)
Significant reduction in target transcript abundance compared to LPS-stimulated BV2 lysates: iNOS ([3]; dose 1 μM): ++ (“++” indicates a p value < 0.01)

— patent US20250275976A1, “Methods of Treating Neuroinflammatory Conditions” (Athira Pharma, Inc., priority 2022, published 2025)
